Read-outs that look alike come from different tables or passages of the source.
What was measured:
[1] = test system: cattle ticks (Boophilus microplus); assay: Boophilus microplus injection test (BOOPMI inj); format: in vivo; conditions: injection into the abdomen; application rate 20 μg/animal; assessed after 7 days
Procedure: Boophilus microplus—Injection Test (BOOPMI inj)
Solvent: dimethyl sulfoxide
To produce a suitable preparation of active compound, 10 mg of active compound are mixed with 0.5 ml of solvent and the concentrate is diluted with solvent to the desired concentration.
1 μl of the active compound solution is injected into the abdomen of 5 engorged adult female cattle ticks (Boophilus microplus). The animals are transferred into dishes and kept in a climate-controlled room.
Efficacy is assessed after 7 days by laying of fertile eggs. Eggs which are not visibly fertile are stored in a climate-controlled cabinet until the larvae hatch after about 42 days. An efficacy of 100% means that none of the ticks has laid any fertile eggs; 0% means that all the eggs are fertile.

[2] = test system: greenhouse red spider mite (Tetranychus urticae); assay: Tetranychus urticae spray test, OP-resistant (TETRUR), bean leaf disks; format: in vivo; conditions: bean leaf disks, application rate 500 g/ha, after 6 days; for pest or weed control at 500 g/ha: Tetranychus urticae, foliar, 144 h, read-out: efficacy in %
Summary of the method: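 Bean leaf disks carrying all stages of OP-resistant Tetranychus urticae sprayed with compound in acetone/dimethylformamide diluted in emulsifier water. Kill assessed after 6 days as % efficacy, 100% meaning all mites dead.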

[3] = test system: southern root-knot nematode (Meloidogyne incognita); assay: Meloidogyne incognita test (MELGIN); format: in vivo; conditions: lettuce in sand; application rate 20 ppm; after 14 days
Procedure: Meloidogvne incognita test (MELGIN)
Solvent: 125.0 parts by weight of acetone
To produce a suitable preparation of active compound, 1 part by weight of active compound is mixed with the stated amount of solvent and the concentrate is diluted with water to the desired concentration.
Vessels are filled with sand, active compound solution, an egg/larvae suspension of the southern root-knot nematode (Meloidogyne incognita) and lettuce seeds. The lettuce seeds germinate and the plants develop. The galls develop on the roots.
After 14 days, the nematicidal efficacy in % is determined by the formation of galls. 100% means that no galls were found; 0% means that the number of galls on the treated plants corresponds to the untreated control.

[4] = log P determination by HPLC on reversed-phase columns (C 18), analogously to OECD Guideline 117; format: physicochemical; conditions: for chromatographic logP: reversed-phase C18 HPLC column; for logP (HCOOH): LC-MS in the acidic range, pH 2.7, 0.1% aqueous formic acid / acetonitrile; for logP (HCOOH) / logP (neutral): HPLC reversed-phase C 18; for logP (neutral): LC-MS in the neutral range, pH 7.8, 0.001 molar aqueous ammonium hydrogencarbonate / acetonitrile
Summary of the method: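 Reversed-phase C18 HPLC per OECD 117 with LC-MS detection and a linear 10→95% acetonitrile gradient. Acidic log P run at pH 2.7 with 0.1% formic acid in both eluents. Neutral log P run at pH 7.8 with 0.001 M aqueous ammonium hydrogencarbonate.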

[5] = test system: larvae of the mustard beetle (Phaedon cochleariae); assay: Phaedon cochleariae spray test (PHAECO); format: in vivo; conditions: Chinese cabbage leaf disks; application rate 500 g/ha; after 7 days
Procedure: Phaedon cochleariae—Spray Test (PHAECO)
(§1) Solvent: 78.0 parts by weight of acetone
(§2) • 1.5 parts by weight of dimethylformamide Emulsifier: alkylaryl polyglycol ether
(§3) To produce a suitable preparation of active compound, 1 part by weight of active compound is dissolved using the stated parts by weight of solvent and made up with water containing an emulsifier concentration of 1000 ppm until the desired concentration is attained. To produce further test concentrations, the preparation is diluted with emulsifier-containing water.
After 7 days, the efficacy in % is determined. 100% means that all the beetle larvae have been killed; 0% means that no beetle larvae have been killed.

[6] = test system: caterpillars of the armyworm (Spodoptera frugiperda); assay: Spodoptera frugiperda spray test (SPODFR); format: in vivo; conditions: maize leaf disks; application rate 500 g/ha; after 7 days
Procedure: Spodoptera frugiperda—Spray Test (SPODFR)
as §1, §2, §3
Leaf disks of maize (Zea mays) are sprayed with an active compound preparation of the desired concentration and, after drying, populated with caterpillars of the armyworm (Spodoptera frugiperda).
After 7 days, the efficacy in % is determined. 100% means that all the caterpillars have been killed; 0% means that no caterpillars have been killed.

[7] = acidic range, pH 2.7, 0.1% aqueous formic acid and acetonitrile, read-out: log P[a] / log P(HCOOH)
[8] = neutral range, pH 7.8, 0.001 molar aqueous ammonium hydrogencarbonate and acetonitrile, read-out: log P[b] / log P(neutral)

Structure (SMILES) | efficacy (laying of fertile eggs) [1] | pest or weed control at 500 g/ha [2] | nematicidal efficacy in % (formation of galls) [3] | chromatographic logP [4, 7] | chromatographic logP [4, 8] | efficacy in % [2] | logP (HCOOH) [4] | logP (neutral) [4] | efficacy in % [5] | efficacy in % [6]
Cc1cc(F)c(N2C(=O)CSC2=NCC(F)(F)F)cc1[S+]([O-])CC(F)(F)F (stereo not shown) [Example 13, 3-{2-Fluoro-4-methyl-5-[(2,2,2-trifluoroethyl)sulfinyl]phenyl}-2-[(2,2,2-trifluoroethyl)imino]-1,3-thiazolidin-4-one] | 100% | 90% | 90% | 2.7 | 2.64 | – | – | – | – | –
Cc1cc(F)c(-n2c(=O)n(C3CC3)c(=O)n2C)cc1[S+]([O-])CC(F)(F)F (stereo not shown) [Example 34] | 100% | – | 90% | – | – | 100% | 1.91 | 1.88 | – | –
Cc1cc(F)c(-n2c(=O)n(C3CC3)c(=O)n2C)cc1SCC(F)(F)F [Example 35] | 100% | – | 100% | – | – | 100% | 2.83 | 2.81 | – | –
Cc1ccc(-n2c(=O)n(C3CC3)c(=O)n2C)cc1[S+]([O-])CC(F)(F)F (stereo not shown) [Example 37] | 100% | – | 100% | – | – | 100% | 1.89 | 1.87 | – | –
Cc1cc(C)c([S+]([O-])CC(F)(F)F)cc1-n1c(=O)n(C2CC2)c(=O)n1C (stereo not shown) [Example 47] | 100% | – | – | – | – | 90% | 1.98 | 1.93 | – | –
C=CCn1c(=O)n(C2CC2)c(=O)n1-c1ccc(C)c(SCC(F)(F)F)c1 [Example 48] | 80% | – | – | – | – | 100% | 3.37 | 3.31 | – | –
Cc1ccc(-n2c(=O)n(C)c(=O)n2CC2CC2)cc1SCC(F)(F)F [Example 52] | – | – | 100% | – | – | 100% | 3.34 | 3.29 | 100% | –
Cn1c(=O)n(C2CC2)c(=O)n1-c1ccc(C(F)(F)F)c([S+]([O-])CC(F)(F)F)c1 (stereo not shown) [Example 54] | 100% | – | 90% | – | – | 100% | 2.63 | 2.58 | – | –
Cc1ccc(-n2c(=O)n(C)c(=O)n2Cc2ccccc2)cc1SCC(F)(F)F [Example 57] | – | – | – | – | – | – | 3.62 | 3.56 | 100% | –
Cc1ccc(-n2c(=O)n(C)c(=O)n2Cc2ccccc2Cl)cc1SCC(F)(F)F [Example 60] | – | – | – | – | – | – | 3.80 | 3.75 | 83% | –
CCn1c(=O)n(C)n(-c2cc(SCC(F)(F)F)c(C)cc2F)c1=O [Example 83] | – | – | 100% | – | – | 100% | 2.92 | 2.88 | – | –
Cc1ccc(-n2c(=O)n(C)c(=O)n2-c2ccc(C)c([S+]([O-])CC(F)(F)F)c2)cc1SCC(F)(F)F (stereo not shown) [Example 84] | – | – | – | – | – | – | 3.46 | 3.38 | 100% | –
Cc1cc(F)c(N2CCOC2=O)cc1SCC(F)(F)F [Example 104, 3-[2-Fluoro-4-methyl-5-(2,2,2-trifluoroethylsulfanyl)phenyl]oxazolidin-2-one] | 100% | 100% | – | 2.66 | – | – | – | – | – | –
Cc1cc(F)c(N2C(=O)CSC2=NCC(C)C)cc1SCC(F)(F)F [Example 115] | 100% | – | – | – | – | 100% | 4.33 | 4.31 | – | –
CCn1c(=O)n(C2CC2)c(=O)n1-c1cc(SCC(F)(F)F)c(C)cc1F [Example 127] | – | – | 90% | – | – | 100% | 3.19 | 3.17 | – | –
Cc1cc(F)c(-n2[nH]c(=O)n(-c3cccc(Cl)c3)c2=O)cc1SCC(F)(F)F [Example 157] | – | – | – | – | – | – | 3.31 | 1.33 | – | 100%
Cc1cc(F)c(N2C(=O)C(C)(C)C(=O)N2C)cc1[S+]([O-])CC(F)(F)F (stereo not shown) [Example 177, 1-{2-Fluoro-4-methyl-5-[(2,2,2-trifluoroethyl)sulfinyl]phenyl}-2,4,4-trimethylpyrazolidine-3,5-dione] | – | 90% | 90% | 1.89 | 1.85 | – | – | – | – | –
Cc1cc(F)c(N2C(=O)C3(CCC3)C(=O)N2C)cc1SCC(F)(F)F [Example 179] | – | – | 90% | – | – | 100% | 3.00 | 2.96 | – | –
Cc1cc(F)c(-n2c(=O)n(C3CC3)c(=S)n2C)cc1SCC(F)(F)F [Example 181, 4-Cyclopropyl-2-{2-fluoro-4-methyl-5-[(2,2,2-trifluoroethyl)sulfanyl]phenyl}-1-methyl-5-thioxo-1,2,4-triazolidin-3-one] | – | 90% | 90% | 3.44 | 3.39 | – | – | – | – | –
Cc1cc(F)c(N2C(=O)C(=O)N(C3CCCCC3)C2=O)cc1SCC(F)(F)F [Example 185, 1-Cyclohexyl-3-{2-fluoro-4-methyl-5-[(2,2,2-trifluoroethyl)sulfanyl]phenyl}imidazolidine-2,4,5-trione] | – | 90% | – | 4.32 | 4.27 | – | – | – | 100% | –
Cc1cc(F)c(N2C(=O)C(=O)N(C3CCCCC3)C2=O)cc1[S+]([O-])CC(F)(F)F (stereo not shown) [Example 186, 1-Cyclohexyl-3-{2-fluoro-4-methyl-5-[(2,2,2-trifluoroethyl)sulfinyl]phenyl}imidazolidin-2,4,5-trion] | – | 100% | – | 3.36 | 3.33 | – | – | – | 100% | –
Cc1cc(F)c(N2C(=O)C(=O)N(CC(F)(F)F)C2=S)cc1[S+]([O-])CC(F)(F)F (stereo not shown) [Example 190] | – | – | – | – | – | 90% | 3.03 | – | 100% | –
Cc1cc(F)c(N2CCN(C)C2=O)cc1SCC(F)(F)F [Example 198] | – | – | – | – | – | 100% | 2.79 | 2.75 | 83% | –
Cc1cc(F)c(-n2[nH]c(=O)n(C3CC3)c2=O)cc1SCC(F)(F)F [Example 207] | – | – | – | – | – | 90% | 1.57 | −0.23 | – | 83%
Cc1cc(F)c(N2CC(=O)N(C)C2=O)cc1[S+]([O-])CC(F)(F)F (stereo not shown) [Example 208] | 100% | – | 90% | – | – | 100% | 1.68 | – | – | –
Cc1cc(F)c(N2CC(=O)N(C3CC3)C2=O)cc1[S+]([O-])CC(F)(F)F (stereo not shown) [Example 209] | 100% | – | 90% | – | – | 100% | 1.92 | – | – | –
Cc1cc(F)c(N2CC(=O)N(C3CC3)C2=O)cc1SCC(F)(F)F [Example 210] | 100% | – | 90% | – | – | 100% | 2.91 | – | – | –
Cc1cc(F)c(N2CC(=O)N(C)C2=O)cc1SCC(F)(F)F [Example 211] | 100% | – | – | – | – | 100% | 2.66 | – | 83% | –
